Test results taken from patent US20220396577A1, “NOVEL SUBSTITUTED 1,3-8-TRIAZASPIRO[4,5] DECANE-2,4-DIONE COMPOUNDS AS INDOLEAMINE 2,3-DIOXYGENASE (IDO) AND/OR TRYPTOPHAN 2,3-DIOXYGENASE (TDO) INHIBITORS” (Merck Sharp & Dohme LLC, priority 2019, published 2022).

What was measured:
LRRK2 (G2019S) = LRRK2 (G2019S) (Homo sapiens, UniProt Q5S007, G2019S); test: Off-target kinase panel, ADAPTA: LRRK2 (G2019S); type: biochemical; details: read-out: Estimated IC50 (uM) LRRK2 (G2019S)
Text: The activity data was obtained in a panel of 265 and 264 for compounds 1-1 and CC-1, respectively, using the ZLYTE and ADAPTA assay methods indicated in the table below.
The Adapta universal kinase assay is a homogenous, fluorescent based immunoassay for the detection of ADP. In contrast to ATP depletion assays, the Adapta assay is highly sensitive to ADP formation such that a majority of the signal change occurs in the first 10-20% conversion of ATP to ADP. This makes the Adapta universal kinase assay well suited for use with low activity kinases.
The principle of the Adapta universal kinase assay is outlined below. The assay itself can be divided into two phases: a kinase reaction phase, and an ADP detection phase. In the kinase reaction phase, all components required for the kinase reaction are added to the well, and the reaction is allowed to incubate for 60 minutes. After the reaction, a detection solution consisting of a europium labeled anti-ADP antibody, an Alexa Fluor 647 labeled ADP tracer, and EDTA (to stop the kinase reaction) is added to the assay well. […]
ADP formation is determined by calculating the emission ratio from the assay well. The emission ratio is calculated by dividing the intensity of the tracer (acceptor) emission by the intensity of the Eu (donor) emission at 615 nm as shown in the equation below. […]
12. Read on fluorescence plate reader and analyze the data.

IDO1 = IDO1 (Homo sapiens, UniProt P14902); test: IDO1 Cellular Assay in HeLa Cells Stimulated with IFNγ (B); type: cell-based; design: endogenous in cells; host or cells: HeLa cells stimulated with IFNγ; details: about 48 h, first value of cell, read-out: IDO hela (B) cell IC50
Protocol: HeLa cells were cultured in complete HeLa culture medium (90% EMEM, 10% heat-inactivated fetal bovine serum) and expanded to about 1×10^9 cells. The cells were then collected and frozen down at 1×10^7 cells/vial in 1 mL frozen medium (90% complete HeLa culture medium, 10% DMSO).
Compounds to be tested were serially diluted in ten 3-fold steps in DMSO starting from 10 mM DMSO stocks in Echo low volume plate(s). Compound dilutions or DMSO alone were then dispensed from the dilution plate(s) into Greiner black 384-well assay plate(s) (catalog #781086, 50 nL/well) using an Echo 550 acoustic liquid handler (Labcyte).
Frozen HeLa cells were thawed and transferred into HeLa assay medium (99% complete HeLa culture medium, 1% Pen/Strep) with 20 mL medium/vial of cells. […] The cells were then counted and adjusted to a density of 2×10^5 cells/mL in HeLa assay medium. […]
HeLa cells with and without IFNγ were dispensed to the respective wells of 384-well assay plates containing the compounds. […] The resulting fluorescence was measured in a Spectramax plate reader (Molecular Devices) with a 400 nm excitation filter and a 510 nm emission filter.
The fluorescence intensity of each well was corrected for the background observed in wells with non-IFNγ-treated cells and was expressed as a fraction of the intensity observed in wells of IFNγ-treated cells and DMSO only. […]

Chain of IDO1 (P14902 whole entry): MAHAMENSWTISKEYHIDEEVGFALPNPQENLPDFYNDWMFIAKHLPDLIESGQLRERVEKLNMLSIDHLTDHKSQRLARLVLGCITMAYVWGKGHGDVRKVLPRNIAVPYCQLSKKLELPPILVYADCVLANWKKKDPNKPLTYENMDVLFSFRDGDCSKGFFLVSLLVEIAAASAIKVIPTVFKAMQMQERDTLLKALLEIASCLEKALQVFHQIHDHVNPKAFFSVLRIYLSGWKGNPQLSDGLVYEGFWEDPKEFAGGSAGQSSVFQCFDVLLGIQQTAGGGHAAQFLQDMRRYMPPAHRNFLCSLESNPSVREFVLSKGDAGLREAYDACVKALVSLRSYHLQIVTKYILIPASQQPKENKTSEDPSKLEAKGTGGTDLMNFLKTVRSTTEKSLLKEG
Chain of LRRK2 (G2019S) (Q5S007 whole entry G2019S): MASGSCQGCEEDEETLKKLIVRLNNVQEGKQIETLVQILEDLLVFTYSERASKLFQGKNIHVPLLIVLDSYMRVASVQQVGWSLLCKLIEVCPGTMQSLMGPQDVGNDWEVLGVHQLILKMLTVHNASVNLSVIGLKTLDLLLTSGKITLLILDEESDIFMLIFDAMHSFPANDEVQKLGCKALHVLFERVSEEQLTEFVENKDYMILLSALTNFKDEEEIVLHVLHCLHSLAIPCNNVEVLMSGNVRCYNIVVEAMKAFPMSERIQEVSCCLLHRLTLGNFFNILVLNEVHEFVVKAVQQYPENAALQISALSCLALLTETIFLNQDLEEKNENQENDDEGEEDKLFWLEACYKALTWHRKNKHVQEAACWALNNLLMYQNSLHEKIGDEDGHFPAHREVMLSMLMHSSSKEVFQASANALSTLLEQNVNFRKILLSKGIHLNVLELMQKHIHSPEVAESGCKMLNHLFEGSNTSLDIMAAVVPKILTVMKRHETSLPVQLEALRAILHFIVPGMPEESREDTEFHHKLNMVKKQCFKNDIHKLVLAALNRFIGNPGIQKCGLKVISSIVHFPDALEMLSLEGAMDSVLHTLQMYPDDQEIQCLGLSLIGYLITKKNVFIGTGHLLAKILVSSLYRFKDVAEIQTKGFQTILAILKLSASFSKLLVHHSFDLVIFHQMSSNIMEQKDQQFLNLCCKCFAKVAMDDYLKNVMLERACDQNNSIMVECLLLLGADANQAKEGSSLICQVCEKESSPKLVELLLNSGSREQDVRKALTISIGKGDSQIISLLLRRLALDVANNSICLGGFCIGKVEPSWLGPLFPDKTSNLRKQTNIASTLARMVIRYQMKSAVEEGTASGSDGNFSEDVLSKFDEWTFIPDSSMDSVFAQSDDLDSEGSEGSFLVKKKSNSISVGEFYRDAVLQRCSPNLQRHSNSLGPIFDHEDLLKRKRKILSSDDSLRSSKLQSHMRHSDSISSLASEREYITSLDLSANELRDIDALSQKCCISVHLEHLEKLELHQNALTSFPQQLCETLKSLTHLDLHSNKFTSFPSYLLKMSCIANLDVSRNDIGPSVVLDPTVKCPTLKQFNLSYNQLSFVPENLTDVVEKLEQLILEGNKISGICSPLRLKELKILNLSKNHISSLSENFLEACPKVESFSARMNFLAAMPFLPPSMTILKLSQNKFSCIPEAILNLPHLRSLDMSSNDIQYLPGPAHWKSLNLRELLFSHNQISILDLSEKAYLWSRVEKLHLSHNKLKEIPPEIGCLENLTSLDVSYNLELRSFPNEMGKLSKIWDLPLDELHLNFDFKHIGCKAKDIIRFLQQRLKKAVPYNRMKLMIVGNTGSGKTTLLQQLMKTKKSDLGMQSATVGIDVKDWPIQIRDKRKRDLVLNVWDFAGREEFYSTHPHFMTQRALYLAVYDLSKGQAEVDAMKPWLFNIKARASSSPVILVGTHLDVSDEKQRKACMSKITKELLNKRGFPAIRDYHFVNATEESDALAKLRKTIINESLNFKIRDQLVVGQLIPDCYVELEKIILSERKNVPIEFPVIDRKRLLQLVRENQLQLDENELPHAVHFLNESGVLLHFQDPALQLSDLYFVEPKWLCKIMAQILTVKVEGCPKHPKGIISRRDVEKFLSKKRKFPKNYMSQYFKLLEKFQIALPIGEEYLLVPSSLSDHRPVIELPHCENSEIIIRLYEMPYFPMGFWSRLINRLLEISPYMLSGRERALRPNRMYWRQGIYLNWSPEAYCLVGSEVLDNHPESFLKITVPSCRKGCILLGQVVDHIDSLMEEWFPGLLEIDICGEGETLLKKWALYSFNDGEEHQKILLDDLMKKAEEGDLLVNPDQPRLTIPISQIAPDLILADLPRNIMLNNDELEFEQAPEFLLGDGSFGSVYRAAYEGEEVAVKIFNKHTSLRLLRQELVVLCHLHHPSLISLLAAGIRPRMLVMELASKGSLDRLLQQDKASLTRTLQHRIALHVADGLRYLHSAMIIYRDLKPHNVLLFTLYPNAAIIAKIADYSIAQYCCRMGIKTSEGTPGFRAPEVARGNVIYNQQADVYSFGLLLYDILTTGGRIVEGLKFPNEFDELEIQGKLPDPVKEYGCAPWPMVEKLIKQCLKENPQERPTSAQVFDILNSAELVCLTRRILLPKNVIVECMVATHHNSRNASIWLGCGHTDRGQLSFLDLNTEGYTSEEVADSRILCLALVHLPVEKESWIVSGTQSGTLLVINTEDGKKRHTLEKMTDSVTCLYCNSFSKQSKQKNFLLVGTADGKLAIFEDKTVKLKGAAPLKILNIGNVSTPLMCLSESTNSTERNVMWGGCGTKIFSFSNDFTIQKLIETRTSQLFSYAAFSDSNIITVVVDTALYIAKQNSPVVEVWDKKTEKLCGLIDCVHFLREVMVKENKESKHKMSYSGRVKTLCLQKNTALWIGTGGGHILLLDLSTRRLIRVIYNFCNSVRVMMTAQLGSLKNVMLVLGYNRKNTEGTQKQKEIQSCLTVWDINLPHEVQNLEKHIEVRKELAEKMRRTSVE

IC50 (LRRK2 (G2019S)) | IC50 (IDO1) | Compound
> 2 µM | 77 nM | C[C@@H]1CN(c2cc(Br)cc3[nH]ncc23)CC[C@]12NC(=O)NC2=O (single isomer, unassigned) [Compound 1-1]
0.94 µM | 97 nM | O=C1NC(=O)C2(CCN(c3cc(Cl)cc4[nH]ncc34)CC2)N1 [CC-1]
